What was measured:
[1] = biological target: T1, TRPM8 (Rattus norvegicus, UniProt Q8R455); conditions: cited from earlier work
[2] = test system: overactive bladder induced by acetic acid; assay: Confirmation test of elongation action of micturition interval of overactive bladder induced by acetic acid; type: in vivo, female SD rats; conditions: Rattus norvegicus, iv, interval before administration = 100%
Protocol: Urethane (sigma) was dissolved into pure water by 25% w/v, and female SD rats were anesthetized with 1.25 g/kg urethane by subcutaneous administration. Cannulae were placed in femoral vein and bladder, and the bladder cannula was connected to both a syringe pump and a pressure transducer. Detrusor overactivity was induced by intravesical infusion of 0.25% acetic acid in saline at a rate of 3.6 mL/h, and intravesical pressure was monitored via pressure transducer concurrently. Test compounds were dissolved into a mixture of dimethylacetamide and saline (20:80), and were administered via the femoral vein. When an average of the three micturition interval before administration was taken as 100%, an average of the three micturition interval after administration was calculated as Elongation of micturition interval (%) Dose and results are shown in tables 46 and 47.

[3] = biological target: T1, TRPM8; assay: Confirmation test of inhibitory effects on icilin-induced wet-dog shakes; type: in vivo, female SD rats; design: test compounds were orally administered to female SD rats; from tissue; host or cells: whole animal (female SD rats), endogenous channel; conditions: icilin 1 mg/kg i.p. after 1 hour, shakes counted for 5 minutes
Protocol: Test compounds were dissolved in dimethylacetamide (wako), and 0.5% methylcellulose solution (wako) was added to make the solution or suspension containing 5% of dimethylacetamide. At a dose of 3 or 10 mg/kg/5 mL of test compounds were orally administered to female SD rats. After 1 hour, wet-dog shakes were induced by the intrapenitoneal injection of icilin (1 mg/kg) which was dissolved in polyethylene glycol 400 (wako). From 5 minutes after the administration of icilin, wet-dog shakes were counted for 5 minutes. For control example, vehicle (a mixture of dimethylacetamide (wako): 0.5% methylcellulose (wako)=5:95) was administrated similarly, and the number of wet-dog shakes was counted in the same manner. A percent inhibition of wet-dog shakes by test compound was calculated from the following formula: [1-(test compound wet-dog shake count/vehicle wet-dog shake count)]×100.

[4] = 1 mg/kg/ml via the femoral vein
[5] = 1 mg/kg/2 ml via the femoral vein

T1 sequence (Q8R455 whole entry): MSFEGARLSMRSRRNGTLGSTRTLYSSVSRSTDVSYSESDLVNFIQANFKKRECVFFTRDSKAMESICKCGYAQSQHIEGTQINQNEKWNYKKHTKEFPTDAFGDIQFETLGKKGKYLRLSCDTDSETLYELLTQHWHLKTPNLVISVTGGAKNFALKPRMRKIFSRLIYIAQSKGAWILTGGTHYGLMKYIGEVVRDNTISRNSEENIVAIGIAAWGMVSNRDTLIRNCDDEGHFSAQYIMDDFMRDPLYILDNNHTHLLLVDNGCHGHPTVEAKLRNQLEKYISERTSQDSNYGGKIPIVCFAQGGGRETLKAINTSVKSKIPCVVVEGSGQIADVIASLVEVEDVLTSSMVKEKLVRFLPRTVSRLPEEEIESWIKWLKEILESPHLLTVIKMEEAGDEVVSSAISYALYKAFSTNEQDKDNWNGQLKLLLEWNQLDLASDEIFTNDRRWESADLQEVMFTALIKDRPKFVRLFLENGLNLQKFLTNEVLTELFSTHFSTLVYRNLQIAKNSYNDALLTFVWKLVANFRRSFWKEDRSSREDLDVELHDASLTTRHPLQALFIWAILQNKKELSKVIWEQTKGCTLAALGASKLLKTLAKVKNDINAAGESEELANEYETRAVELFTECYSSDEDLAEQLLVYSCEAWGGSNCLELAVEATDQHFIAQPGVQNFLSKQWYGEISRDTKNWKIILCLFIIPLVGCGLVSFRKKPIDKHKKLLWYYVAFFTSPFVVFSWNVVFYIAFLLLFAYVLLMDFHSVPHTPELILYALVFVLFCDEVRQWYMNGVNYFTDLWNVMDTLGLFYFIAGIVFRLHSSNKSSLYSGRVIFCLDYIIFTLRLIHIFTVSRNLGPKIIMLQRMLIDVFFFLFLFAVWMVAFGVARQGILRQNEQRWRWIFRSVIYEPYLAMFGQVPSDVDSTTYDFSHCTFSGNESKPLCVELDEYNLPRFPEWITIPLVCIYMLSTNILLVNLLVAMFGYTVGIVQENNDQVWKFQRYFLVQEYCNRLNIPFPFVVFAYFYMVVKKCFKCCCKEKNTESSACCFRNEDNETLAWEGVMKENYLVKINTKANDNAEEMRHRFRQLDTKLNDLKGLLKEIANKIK

Row | Structure (SMILES) | % inhibition of Wet-Dog Shake ([3]; dose 3 mg/kg orally) | % inhibition of Wet-Dog Shake ([3]; dose 10 mg/kg orally) | response vs control in vivo at 1 mg/kg [2, 4] | response vs control in vivo at 1 mg/kg [2, 5] | also measured
1 | Cc1cccc(COc2ccccc2C(=O)N(CCCN)Cc2cccs2)c1.Cl [AMTB, N-(3-aminopropyl)-2-{[(3-methylphenyl)methyl]oxy}-N-(2-thienylmethyl)benzamide hydrochloride] |  |  |  |  | frequency of rhythmic bladder contractions ([1]; anesthetized rats): suppresses; nociceptive reflex responses to bladder distension ([1]; anesthetized rats): suppresses; average blood pressure ([1]; rat, in vivo): decrease
2 | COc1ncccc1C(=O)N([C@@H]1CCc2ccc(Cl)cc21)[C@@H](C(N)=O)c1ccccc1 [Example 2-46LP, N-[(R)-carbamoylphenylmethyl]-N-[(R)-6-chloroindan-1-yl]-2-methoxynicotinamide] | 79% |  | 186% |  | 
3 | COc1ccccc1C(=O)N([C@@H]1CCc2c(F)cc(Cl)cc21)[C@@H](C(N)=O)c1ccccc1 [Example 2-89LP, N-[(R)-carbamoylphenylmethyl]-N-[(R)-6-chloro-4-fluoroindan-1-yl]-2-methoxybenzamide] | 100% |  |  | 196% | 
4 | NC(=O)[C@@H](c1ccccc1)N(C(=O)c1cccc2c1OCC2)[C@@H]1CCc2c(F)cc(Cl)cc21 [Example 2-111LP, N-[(R)-carbamoylphenylmethyl]-N-[(R)-6-chloro-4-fluoroindan-1-yl]-2,3-dihydrobenzofuran-7-carboxamide] | 91% |  |  |  | response vs control in vivo at 0.3 mg/kg ([2]; 0.3 mg/kg/2 ml via the femoral vein): 135%
5 | Cc1ncccc1C(=O)N([C@@H]1CCc2c(F)cc(F)cc21)[C@@H](C(N)=O)c1ccccc1 [Example 2-131LP, N-[(R)-carbamoylphenylmethyl]-N-[(R)-4,6-difluoroindan-1-yl]-2-methylnicotinamide] | 100% |  | 162% |  | 
6 | Cc1scnc1C(=O)N([C@@H]1CCc2c(F)cc(Cl)cc21)[C@@H](C(N)=O)c1ccccc1 [Example 2-147LP, N-[(R)-carbamoylphenylmethyl]-N-[(R)-6-chloro-4-fluoroindan-1-yl]-5-methylthiazole-4-carboxamide] | 91% |  |  | 146% | 
7 | NC(=O)[C@@H](c1ccccc1)N(C(=O)c1ccccc1)[C@@H]1CCc2c(F)cc(F)cc21 [Example 2-221LP, N-[(R)-carbamoylphenylmethyl]-N-[(R)-4,6-difluoroindan-1-yl]benzamide] |  | 100% |  | 154% | 
8 | NC(=O)[C@@H](c1ccccc1)N(C(=O)c1ccccc1N)[C@@H]1CCc2c(F)cc(F)cc21 [Example 6-1, 2-amino-N-[(R)-carbamoylphenylmethyl]-N-[(R)-4,6-difluoroindan-1-yl]benzamide] |  | 89% |  | 194% | 
9 | COc1ncccc1C(=O)N([C@@H]1CCc2c(F)cc(Cl)cc21)[C@@H](C(N)=O)c1ccccc1 [Example 11, N-[(R)-carbamoylphenylmethyl]-N-[(R)-6-chloro-4-fluoroindan-1-yl]-2-methoxynicotinamide] | 100% |  | 162% |  | 
10 | Cc1ncsc1C(=O)N([C@@H]1CCc2c(F)cc(Cl)cc21)[C@@H](C(N)=O)c1ccccc1 [Example 15LP, N-[(R)-carbamoylphenylmethyl]-N-[(R)-6-chloro-4-fluoroindan-1-yl]-4-methylthiazole-5-carboxamide] | 100% |  | 188% |  | 

Continued, in another order:

Row | % inhibition of Wet-Dog Shake ([3]; dose 3 mg/kg orally) | % inhibition of Wet-Dog Shake ([3]; dose 10 mg/kg orally) | Structure (SMILES) | response vs control in vivo at 1 mg/kg [2, 4] | response vs control in vivo at 1 mg/kg [2, 5] | also measured
11 |  | 100% | NC(=O)[C@@H](c1cccnc1)N(C(=O)c1ccccc1)[C@@H]1CCc2c(F)cc(Cl)cc21 [Example 2-66LP, N-[(R)-carbamoylpyridin-3-ylmethyl]-N-[(R)-6-chloro-4-fluoroindan-1-yl]benzamide] | 175% |  | 
12 |  | 73% | NC(=O)[C@@H](c1ccccc1)N(C(=O)c1cncc(F)c1)[C@@H]1CCc2c(F)cc(Cl)cc21 [Example 2-86LP, N-[(R)-carbamoylphenylmethyl]-N-[(R)-6-chloro-4-fluoroindan-1-yl]-5-fluoronicotinamide] |  | 145% | 
13 |  | 93% | Cc1ncccc1C(=O)N([C@@H]1CCc2c(F)cc(Cl)cc21)[C@@H](C(N)=O)c1cccnc1 [Example 12, N-[(R)-carbamoylpyridin-3-ylmethyl]-N-[(R)-6-chloro-4-fluoroindan-1-yl]-2-methylnicotinamide] | 142% |  | 
14 | 93% |  | NC(=O)[C@@H](c1ccccc1)N(C(=O)c1cccnc1N)[C@@H]1CCc2c(F)cc(Cl)cc21 [Example 13, 2-amino-N-[(R)-carbamoylphenylmethyl]-N-[(R)-6-chloro-4-fluoroindan-1-yl]nicotinamide] | 184% |  | 
15 | 100% |  | Cc1ncccc1C(=O)N([C@@H]1CCc2c(F)cc(Cl)cc21)[C@@H](C(N)=O)c1ccccc1 [Example 14LP, N-[(R)-carbamoylphenylmethyl]-N-[(R)-6-chloro-4-fluoroindan-1-yl]-2-methylnicotinamide] | 181% |  | 
